Data published in patent US20050239842A1, “Methods of using and compositions comprising immunomodulatory compounds for the treatment and management of pulmonary hypertension” (priority 2004, published 2005).

Key:
patients with PH [1] = assay: Clinical Study 2 in PH patients, 12 weeks, placebo controlled; format: in vivo, human
Procedure: In one embodiment of the invention, 3-(4-amino-1-oxo-1,3-dihydro-isoindol-2-yl)-piperidine-2,6-dione is administered in a single or divided daily doses in an amount of from about 1 to about 100 mg/day. In another embodiment of the invention, 3-(4-amino-1-oxo-1,3-dihydro-isoindol-2-yl)-piperidine-2,6-dione is administered from about 1 to about 20 mg/day individually. The compound is administered to patients with PH for 12 weeks, who are subsequently evaluated for a decline in walk distance, dyspnea score, functional class, pulmonary hemodynamic response. The first study enrolls 32 patients with PH. Patients are all in modified New York Heart Association functional class III at the onset of the study. Patents are maximally treated and are stable on conventional therapy, including calcium channel antagonists and diuretics. Two thirds of patients receive 5 mg of 3-(4-amino-1-oxo-1,3-dihydro-isoindol-2-yl)-piperidine-2,6-dione for four weeks followed by 10 mg of the compound for eight weeks. One third of patients receive placebo. The primary efficacy endpoint is a 6-minute walk distance. Patients receiving the compound of the invention walk an average of 70 meters farther after 12 weeks while placebo patients have a decline in walk distance. In addition, the treated patients have improvements in dyspnea score and functional class compared with placebo patients. Pulmonary hemodynamic measurements reveal decreases in pulmonary arterial pressure and pulmonary vascular resistance, and increase in cardiac output after 12 weeks of the treatment, compared with worsening of pulmonary hemodynamics in placebo patients. All these changes in treated patients are highly significant compared with placebo.

[2] = test system: production of various cytokines; assay: In vitro pharmacological activity profile compared with thalidomide; format: cell-based; settings: in vitro studies
Source text: The pharmacological properties of 3-(4-amino-1 -oxo-1,3-dihydro-isoindol-2-yl)-piperidine-2,6-dione, including activity comparisons with thalidomide, have been characterized in in vitro studies. Studies examined the effects of 3-(4-amino-1-oxo-1,3-dihydro-isoindol-2-yl)-piperidine-2,6-dione or thalidomide on the production of various cytokines.
The pharmacological effects of 3-(4-amino-1-oxo-1,3-dihydro-isoindol-2-yl)-piperidine-2,6-dione derive from its action as an inhibitor of cellular response to receptor-initiated trophic signals (e.g., IGF-1, VEGF, […]), and other activities. As a result, 3-(4-amino-1-oxo-1,3-dihydro-isoindol-2-yl)-piperidine-2,6-dione suppresses the generation of inflammatory cytokines, down-regulates adhesion molecules and apoptosis inhibitory proteins (e.g., cFLIP, clAP), promotes sensitivity to death-receptor initiated programmed cell death, and suppresses angiogenic response.

patients with PH [3] = assay: Expanded clinical study in PH patients, WHO functional class III or IV, 16 weeks; format: in vivo, human
Procedure: On the basis of the results of the above study 2, the clinical study is expanded with additional 213 PH patients for at least 16 weeks. The study is conducted with patients with PH, WHO functional class III or IV. Two hundred thirteen patients are randomized to receive either 5 mg bid or 10 mg bid of 3-(4-amino-1-oxo-1,3-dihydro-isoindol-2-yl)-piperidine-2,6-dione or placebo in a 1:1:1 ratio. The primary endpoint, a 6-minute walk distance, is evaluated at 16 weeks. The treated patients walk 36.4 meters further at 16 weeks compared to a 7.8 meter reduction in walk distance in the placebo group, for a treatment effect of 44.2 meters. Clinical worsening, defined by death, premature withdrawal from study, hospitalization for worsening of PH or institution of epoprostenol, occur in 37% of placebo-treated patients, compared with 11% of the patients treated with the compound of the invention.

[4] = cited from earlier work

Structure (SMILES) | dyspnea score and functional class (patients with PH [1]; 12 weeks, compared with placebo patients) | cardiac output (patients with PH [1]; after 12 weeks of treatment) | pulmonary arterial pressure and pulmonary vascular resistance (patients with PH [1]; after 12 weeks of treatment) | 6-minute walk distance, average increase (patients with PH [1]; after 12 weeks, 5 mg for four weeks then 10 mg for eight weeks) [meters] | potency relative to thalidomide [2] | treatment effect on 6-minute walk distance versus placebo (patients with PH [3]; at 16 weeks) [meters] | 6-minute walk distance, increase (patients with PH [3]; at 16 weeks, 5 mg bid or 10 mg bid) [meters] | clinical worsening (death, premature withdrawal, hospitalization for worsening of PH or institution of epoprostenol), share of patients (patients with PH [3]; treated patients) [%] | functional class (patients with PH [3]; treated versus placebo patients) | stability among forms in aqueous solvent systems [4]
Nc1cccc2c1CN(C1CCC(=O)NC1=O)C2=O (stereo not shown) [3-(4-amino-1-oxo-1,3-dihydro-isoindol-2-yl)-piperidine-2,6-dione] | improvements | increase | decreases | 70 | 50 to 2,000 times | 44.2 | 36.4 | 11 | improved significantly more | –
Nc1cccc2c1CN(C1CCC(=O)NC1=O)C2=O (stereo not shown) [Form E, 3-(4-amino-1-oxo-1,3 dihydro-isoindol-2-yl)-piperidene-2,6-dione] | – | – | – | – | – | – | – | – | – | most stable form
